Consider 39 molecules from patent US6762046B2, “Polypeptide having β-fructofuranosidase activity” (Kabushiki Kaisha Hayashibara Seibutsu Kagaku Kenkyujo, priority 1996, dated 2004).

Data set [1] relates to polypeptide having β-fructofuranosidase activity. As to the kind of experiment: Specificity for fructofuranosyl transfer from sucrose to acceptors (TLC). Type of data set: biochemical, Bacillus sp. V230. Set-up: key: Compared with a reaction mixture of sucrose, “−” means unchanged; +: the size and color of a spot for fructofuranosyl acceptor reduced slightly, and spot for fructofuransyl-transferred product was slightly detected; ++: the size and color of a spot for fructofuranosyl acceptor more reduced and a spot for fructofuransyl transferred product was clearly observed. Conditions: acceptor and sucrose (donor) in equal weight, 10 w/v %, 2 units/g sucrose of polypeptide of Example 2-1, 40° C., pH 5.5, 24 hours. On the procedure: Using as fructofuranosyl acceptors the monosaccharides, oligosaccharides and alcohols in Table 1, the specificity of the present polypeptide for fructofuranosyl transfer was studied: Any one of the fructofuranosyl acceptors in Table 1 and sucrose as a fructofuranosyl donor were mixed in an equal amount by weight, and the mixture was dissolved in water into a 10 w/v % aqueous solution which was then mixed with 2 units/g sucrose, d.s.b., of a polypeptide obtained by the method in Example 2-1, and reacted at 40° C. and pH 5.5 for 24 hours. Thereafter, the reaction mixture was separated by TCL similarly as above, and the plate was colored by spraying 0.5 N phosphate solution containing 0.2 w/v % naphthoresorcinol, and the plate was heated at 110° C. for 5 min to color and detect fructofuranosyl-transferred products.

The test system is the same in data set [2]. The data set is described as follows: Action of the polypeptide on saccharide substrates (release of fructose, TLC). Type of data set: biochemical, Bacillus sp. V230. The settings on record: 2 w/v % substrate, 2 units/g substrate of polypeptide of Example 2-1, 40° C., pH 5.5, 24 hours. Here is the method:
An aqueous solution, containing as a substrate sucrose, raffinose, erlose, stachyose, lactosucrose, xylosylfructoside, maltose, cellobiose, lactose, inulin or levan in a concentration of 2 w/v %, was mixed with 2 units/g substrate, d.s.b., of a polypeptide obtained by the method in Example 2-1 and reacted at 40° C. and pH 5.5 for 24 hours.
An adequate amount of each reaction mixture was spotted on “KIESELGEL 60”, an aluminum plate for thin layer chromatography (TLC) commercialized by Merck & Co., Inc., Rahway, USA, developed at ambient temperature using a developing solvent system of 1-butanol, pyridine and water (=7:3:1 by volume), and dried. When the reaction mixture contained fructose, the plate was colored by spraying 0.5 N phosphate solution containing 0.2 w/v % naphthoresorcinol, and heated at 110° C. for 5 min, while the plate was colored by spraying a mixture solution of 20 w/v % sulfuric acid in methanol and heated at 110° C. for 10 min.

Data set [3] is described as follows: β-fructofuranosidase activity assay (reducing power, Somogyi-Nelson's method). The settings on record: sucrose substrate, 20 mM acetate buffer pH 6.0 with 5 mM calcium chloride, 40° C., 10 min. Type of data set: biochemical. On the procedure:
The activity of the present β-fructofuranosidase was assayed as follows: Sucrose as a substrate was dissolved in 20 mM acetate buffer (pH 6.0) containing 5 mM calcium chloride to give a concentration of 0.1 w/v %. To 5 ml of the solution was added 0.2 ml of a test sample, and the mixture was incubated at 40° C. for 10 min, followed by suspending the enzymatic reaction by the addition of 0.2 ml of the Somogyl copper solution and assaying the reducing power of the reaction mixture by the Somogyi-Nelson's method. As a control, a control solution, which was preheated at 100° C. for 10 min to inactivate the enzyme, was treated similarly as above. Under the above reaction conditions, one unit β-frustofuranosidase activity is defined as the amount of enzyme or polypeptide which gives a reducing power equal to that of 2 μmole of glucose per minute.

A short description of a further data set: Thermal stability. Type of data set: physicochemical. The settings on record: incubated for 60 min in 50 mM acetate buffer pH 6.0.
The next data set in a line: Optimum pH. The class given is biochemical. Conditions: incubated at 40° C. for 10 min in 20 mM buffers.
The nature of another data set: Optimum temperature. The class given is biochemical. The settings on record: 10 min, 20 mM acetate buffer pH 6.0.

As for `CCCCO` [1-Butanol], in data set [1], the “Formation of fructofuranosyl-transferred product” value (“Formation” for short) is “−”. On the same count and under the same terms, the value for `CCCO` [1-Propanol] was “−”; that for `CCC(C)O` (centres unmarked) [2-Butanol] was “−”; that for `CC(C)O` [2-Propanol] was “−”. Turning to `O=C[C@H](O)[C@@H](O)[C@H](O[C@@H]1O[C@H](CO)[C@@H](O)[C@H](O)[C@H]1O)[C@H](O)CO` [Cellobiose], in data set [2], the “action on substrate to release fructose” value is given as “did not substantially act on”. The “Formation” value in data set [1] is on record as “++”.

With `O=C(CO)[C@@H](O)[C@H](O)[C@H](O)CO` [D-Fructose], the “Formation” value in data set [1] is given as “+”. On the same count and under the same terms, as for `O=C[C@H](O)[C@@H](O)[C@@H](O)[C@H](O)CO` [D-Galactose], the entry is “++”; as for `O=C[C@@H](O)[C@@H](O)[C@H](O)[C@H](O)CO` [D-Mannose], “+”; as for `OC[C@@H](O)[C@@H](O)[C@H](O)[C@@H](O)CO` [D-Sorbitol], “++”. The same measure, in the same setting: the value for `OC[C@@H](O)[C@H](O)[C@@H](O)CO` [D-Xylitol] was “++”. The same measure, in the same setting: as for `O=C[C@H](O)[C@@H](O)[C@H](O)CO` [D-Xylose], the entry is “++”; as for `CCO` [Ethanol], “+”; as for `OCCO` [Ethylene glycol], “++”.

Turning to `OCC(O)CO` [Glycerol], the “Formation” value in data set [1] was “++”. With `OC[C@H]1O[C@H](OC[C@H]2OC(O)[C@H](O)[C@@H](O)[C@@H]2O)[C@H](O)[C@@H](O)[C@@H]1O` (some centres unmarked) [Isomaltose], the “Formation” value in data set [1] is on record as “++”. Same read-out and setting: as for `OC[C@H]1O[C@H](O[C@H]2C(O)O[C@H](CO)[C@@H](O)[C@@H]2O)[C@H](O)[C@@H](O)[C@@H]1O` (some centres unmarked) [Kojibiose], the entry is “+”. On the same count and under the same terms, as for `O=C[C@H](O)[C@@H](O)[C@@H](O)CO` [L-Arabinose], the entry is “+”; as for `C[C@H](O)[C@H](O)[C@@H](O)[C@@H](O)C=O` [L-Rhamnose], “+”.

Turning to `O=C(CO)[C@@H](O)[C@H](O)[C@@H](O)CO` [L-Sorbose], the “Formation” value in data set [1] is recorded as “+”. In the case of `OC[C@H]1O[C@@H](O[C@H]2[C@H](O)[C@@H](O)C(O)O[C@@H]2CO)[C@H](O)[C@@H](O)[C@H]1O` (some centres unmarked) [Lactose], the “action on substrate to release fructose” value in data set [2] is on record as “did not substantially act on”. In data set [1], the “Formation” value is on record as “++”.

`OC[C@@H](O)[C@@H](O[C@H]1O[C@H](CO)[C@@H](O)[C@H](O)[C@H]1O)[C@H](O)[C@@H](O)CO` [Maltitol]: the “Formation” value in data set [1] is given as “++”. Consider `OC[C@H]1O[C@H](O[C@H]2[C@H](O)[C@@H](O)[C@H](O)O[C@@H]2CO)[C@H](O)[C@@H](O)[C@@H]1O` [Maltose], for which the “action on substrate to release fructose” value in data set [2] is recorded as “did not substantially act on”. Moreover, the “Formation” value in data set [1] was “++”. Take `OC[C@H]1O[C@H](OCC2O[C@@H](O)[C@H](O)[C@@H](O)[C@@H]2O)[C@H](O)[C@@H](O)[C@H]1O` (some centres unmarked) [Melibiose]: the “Formation” value in data set [1] is given as “++”. On the same count and under the same terms, as for `CO` [Methanol], the entry is “+”; as for `OC[C@H]1O[C@@H](O[C@H]2O[C@H](CO)[C@@H](O)[C@H](O)[C@H]2O)[C@H](O)[C@@H](O)[C@@H]1O` [Neotrehalose], “+”. For `OC[C@H]1O[C@H](OC[C@H]2OC(O)(CO)[C@@H](O)[C@@H]2O)[C@H](O)[C@@H](O)[C@@H]1O` (some centres unmarked) [Palatinose], the “Formation” value in data set [1] is “+”. The same measure, in the same setting: the value for `OC[C@H]1O[C@H](OC[C@H]2O[C@H](O[C@H]3[C@H](O)[C@@H](O)C(O)O[C@@H]3CO)[C@H](O)[C@@H](O)[C@@H]2O)[C@H](O)[C@@H](O)[C@@H]1O` (some centres unmarked) [Panose] was “++”. Consider `OC[C@H]1O[C@H](OC[C@H]2O[C@H](O[C@]3(CO)O[C@H](CO)[C@@H](O)[C@@H]3O)[C@H](O)[C@@H](O)[C@@H]2O)[C@H](O)[C@@H](O)[C@H]1O` [Raffinose], for which the “action on substrate to release fructose” value in data set [2] is on record as “acted on”. For the same molecule, the “Formation” value in data set [1] is “+”. In the case of `OC[C@H]1O[C@H](O[C@H]2O[C@H](CO)[C@@H](O)[C@H](O)[C@H]2O)[C@H](O)[C@@H](O)[C@@H]1O` [Trehalose], the “Formation” value in data set [1] is recorded as “++”.

On to `O=C(CO)[C@@H](O[C@H]1O[C@H](CO)[C@@H](O)[C@H](O)[C@H]1O)[C@H](O)[C@H](O)CO` [Turanose], for which the “Formation” value in data set [1] is “+”.

Turning to `OC[C@H]1O[C@@](CO)(O[C@H]2O[C@H](CO)[C@@H](O[C@H]3O[C@H](CO)[C@@H](O)[C@H](O)[C@H]3O)[C@H](O)[C@H]2O)[C@@H](O)[C@@H]1O` [erlose], the “action on substrate to release fructose” value in data set [2] is “acted on”. On the same count and under the same terms, the value for `OC[C@H]1O[C@@H](O[C@H]2[C@H](O)[C@@H](O)[C@@H](O[C@]3(CO)O[C@H](CO)[C@@H](O)[C@@H]3O)O[C@@H]2CO)[C@H](O)[C@@H](O)[C@H]1O` [lactosucrose] was “acted on”. On the same count and under the same terms, as for `OC[C@H]1O[C@H](OC[C@H]2O[C@H](OC[C@H]3O[C@H](O[C@]4(CO)O[C@H](CO)[C@@H](O)[C@@H]4O)[C@H](O)[C@@H](O)[C@@H]3O)[C@H](O)[C@@H](O)[C@H]2O)[C@H](O)[C@@H](O)[C@H]1O` [stachyose], the entry is “acted on”.

On to `OC[C@H]1O[C@@](CO)(O[C@H]2O[C@H](CO)[C@@H](O)[C@H](O)[C@H]2O)[C@@H](O)[C@@H]1O` [sucrose], for which the “action on substrate to release fructose” value in data set [2] is on record as “acted on”.

Consider `OC[C@H]1O[C@](CO)(O[C@H]2OC[C@@H](O)[C@H](O)[C@H]2O)[C@@H](O)[C@@H]1O` [xylosylfructoside], for which, in data set [2], the “action on substrate to release fructose” value is on record as “acted on”. For Maltotriose, the “Formation” value in data set [1] was “++”. On to inulin, for which, in data set [2], the “action on substrate to release fructose” value was “did not substantially act on”. Same read-out and setting: as for levan, the entry is “did not substantially act on”.

B1: polypeptide in Example 2-1: polypeptide with β-fructofuranosidase activity produced by transformant BBF4 (Escherichia coli), containing the amino acid sequence of SEQ ID NO:3 (protein)
chain: MNSGDYKEDYGFAHITRADMLKIPGQQNSPQFKVPQFNASAIKNIDSAKGYDKSGNLIDLDVWDSWPLQNADGTAANYHGYHIVSALAGDPKNSDDTPLHLFYQKVGDTSIDSWKNAGRVFEDMDKFVPNDPYLKYQTQEWSGSATLTKDGQVRLFYTDYSGNPEDGGTGAGNQIISTAQVNLSQPDAATLKVDGVSDHKSVFDGGDGTVYQNIQQFIDEGKWISGDNHTLRDPHYVEDKGHKYLVFEANTGTTDGYQGDQSFNNKAYYGGSDVFFQNEKNKLLQSPKKQIASLANGALGIVELADDYTVKSVMKPLVASNTVADEVERANIFKMNNKWYLFTDSRGSKMTSDGINDKDVYMLGPGGDSLNGPHNPINETGLVLNMNLDPADLTHTYSHCGIPHPEGNNVVLTSYMTNRGFYPEHHSHLRDKLGVNIKGSDTSGGENSSGQGQFP
On to B1, for which the “specific activity (β-fructofuranosidase)” value in data set [3] is on record as 205 units/mg protein. The “thermal stability (stable up to temperature)” value in the data set “Thermal stability” was not above 45 °C. In “Optimum pH”, the “optimum pH” value was 5.5-6.0. The optimum temperature in the data set “Optimum temperature” (in the absence of calcium ion) is approximately 45 °C; in the data set “Optimum temperature” (in the presence of 5 mM calcium ion), “about 50 °C”.
